Bridge positions count the residues as written; N and C are the ends. Square brackets hold non-standard residues; d marks the D form. Peptide text beside a SMILES is read from it. Phe(4-CH2NH2) = NCc1ccc(C[C@H](N)C(=O)O)cc1; Thz(5,5-Me2) = CC1(C)SCN[C@@H]1C(=O)O; NMeR = CN[C@@H](CCCNC(=N)N)C(=O)O; 3Amb = NCc1cccc(C(=O)O)c1; dAbu = CC[C@@H](N)C(=O)O
Tests used:
[1] = biological target: activated platelet GPIIb/IIIa receptors (Homo sapiens, UniProt P05106+P08514); details: cited from earlier work; for affinity for activated versus resting platelet GPIIb/IIIa: resting vs activated form
Chain of activated platelet GPIIb/IIIa receptors (P08514 32-887 limits assumed): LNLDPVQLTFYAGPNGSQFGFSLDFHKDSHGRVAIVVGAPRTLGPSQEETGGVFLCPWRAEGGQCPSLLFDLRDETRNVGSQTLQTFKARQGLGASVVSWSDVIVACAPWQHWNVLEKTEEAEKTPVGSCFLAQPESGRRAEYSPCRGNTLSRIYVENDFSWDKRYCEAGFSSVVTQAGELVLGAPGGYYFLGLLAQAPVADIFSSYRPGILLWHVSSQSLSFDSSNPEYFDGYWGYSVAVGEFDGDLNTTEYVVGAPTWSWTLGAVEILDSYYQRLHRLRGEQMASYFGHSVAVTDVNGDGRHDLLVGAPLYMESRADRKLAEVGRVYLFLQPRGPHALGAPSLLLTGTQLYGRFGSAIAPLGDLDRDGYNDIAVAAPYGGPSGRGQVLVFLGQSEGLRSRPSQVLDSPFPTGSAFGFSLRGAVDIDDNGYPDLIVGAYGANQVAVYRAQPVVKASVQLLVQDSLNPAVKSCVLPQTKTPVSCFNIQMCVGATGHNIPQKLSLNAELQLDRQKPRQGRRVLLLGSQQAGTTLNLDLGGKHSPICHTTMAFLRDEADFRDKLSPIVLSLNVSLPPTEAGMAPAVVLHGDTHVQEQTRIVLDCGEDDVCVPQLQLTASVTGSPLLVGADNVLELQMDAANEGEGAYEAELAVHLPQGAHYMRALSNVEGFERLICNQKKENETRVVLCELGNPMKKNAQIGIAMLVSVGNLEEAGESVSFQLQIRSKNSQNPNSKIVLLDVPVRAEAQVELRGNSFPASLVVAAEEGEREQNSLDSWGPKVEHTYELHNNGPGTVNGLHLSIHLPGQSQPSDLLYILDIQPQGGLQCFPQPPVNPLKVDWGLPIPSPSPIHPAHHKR
Chain of activated platelet GPIIb/IIIa receptors (P08514 891-1039 limits assumed): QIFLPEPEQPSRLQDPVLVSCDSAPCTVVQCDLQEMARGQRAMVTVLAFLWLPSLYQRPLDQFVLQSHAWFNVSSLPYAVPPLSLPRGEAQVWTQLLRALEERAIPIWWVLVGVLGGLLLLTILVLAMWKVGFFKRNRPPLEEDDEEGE
Chain of activated platelet GPIIb/IIIa receptors (P05106 27-788): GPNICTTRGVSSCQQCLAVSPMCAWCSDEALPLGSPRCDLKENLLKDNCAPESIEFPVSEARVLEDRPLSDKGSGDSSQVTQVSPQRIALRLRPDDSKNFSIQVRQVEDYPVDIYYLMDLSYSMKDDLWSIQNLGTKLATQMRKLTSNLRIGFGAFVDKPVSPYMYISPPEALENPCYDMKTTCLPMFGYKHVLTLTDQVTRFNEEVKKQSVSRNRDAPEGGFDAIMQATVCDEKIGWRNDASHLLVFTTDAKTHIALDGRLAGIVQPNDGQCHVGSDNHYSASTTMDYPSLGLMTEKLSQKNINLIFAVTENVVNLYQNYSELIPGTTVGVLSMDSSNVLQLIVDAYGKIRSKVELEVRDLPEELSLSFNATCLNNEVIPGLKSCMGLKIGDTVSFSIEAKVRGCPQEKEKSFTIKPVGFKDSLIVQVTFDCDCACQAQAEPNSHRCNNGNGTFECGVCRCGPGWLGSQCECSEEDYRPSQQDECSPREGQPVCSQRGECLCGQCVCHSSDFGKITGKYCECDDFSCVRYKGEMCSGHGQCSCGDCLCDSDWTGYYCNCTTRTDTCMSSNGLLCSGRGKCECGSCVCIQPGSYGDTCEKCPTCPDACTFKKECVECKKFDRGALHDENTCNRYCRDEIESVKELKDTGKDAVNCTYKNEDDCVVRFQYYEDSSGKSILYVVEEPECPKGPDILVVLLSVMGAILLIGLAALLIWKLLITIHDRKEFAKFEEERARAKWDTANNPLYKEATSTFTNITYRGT

[2] = biological target: platelet GPIIb/IIIa receptors (Homo sapiens, UniProt P05106+P08514); details: cited from earlier work
Chain of platelet GPIIb/IIIa receptors (P08514 32-887 limits assumed): as the sequence (P08514 32-887 limits assumed) above
Chain of platelet GPIIb/IIIa receptors (P08514 891-1039 limits assumed): as the sequence (P08514 891-1039 limits assumed) above
Chain of platelet GPIIb/IIIa receptors (P05106 27-788): as the sequence (P05106 27-788) above

[3] = biological target: resting platelet GPIIb/IIIa receptors (Homo sapiens, UniProt P05106+P08514); details: resting form of GPIIb/IIIa; cited from earlier work
Chain of resting platelet GPIIb/IIIa receptors (P08514 32-887 limits assumed): as the sequence (P08514 32-887 limits assumed) above
Chain of resting platelet GPIIb/IIIa receptors (P08514 891-1039 limits assumed): as the sequence (P08514 891-1039 limits assumed) above
Chain of resting platelet GPIIb/IIIa receptors (P05106 27-788): as the sequence (P05106 27-788) above

[4] = cited from earlier work
B16 melanoma cells = assay: B16 LV injection metastasis model in β3+/+ mice; format: in vivo
Description: The activated αIIbβ3 receptor antagonist was tested based on its ability to diminish metastases in wild type mice. […] The mice were treated 30 minutes prior to the LV injection of 1×10^5 B16 cells, and then every 12 hours for 5 doses (2.5 days of treatment out of the 14 day experiment). 14/40 (35%) mice died from bleeding complications after the LV injection indicative of effective disruption of αIIbβ3 mediated platelet aggregation. 1/17 (6%) placebo treated mice died after the LV injection procedure. […] Placebo in DMSO carrier was also administered by oral gavage. Mice were evaluated 14 days after B16 injection for bone and visceral metastases.
Mice were anaesthetized followed by injection with 30 gauge needles of 1×10^5 B16 cells in 100 μl PBS into the left cardiac ventricle as previously described. Confirmation of correct insertion was established by pulsing geyser of blood in the syringe. After the injection mice were monitored daily for 14 days.
(§1) C57BI6 mice were used to analyze metastasis antagonism. […] Blockade of platelet aggregation is complete at 30 minutes after oral gavage but persists for up to 10 hours. […] Thirty minutes after the first oral-gavage dose, mice were LV injected with B16 cells and evaluated for metastases 14 days later.

platelet aggregation = assay: Platelet aggregation after in vivo oral administration (aggregometry from PRP); design: species or system mice; details: after an oral dose of 100 mg/kg
Source text: An activated αIIbβ3 receptor antagonist in β3^+/+ mice was utilized in examples showing the role of platelet β3 integrin in the protection from bone metastases seen in the β3^−/− mouse. […] However, those skilled in the art will recognize that additional activated αIIbβ3 receptor antagonists may be used in the methods, the efficacies of which may be determined using the protocols of the present disclosure. Additional protocols are available to those skilled in the art to determine the efficacy of other activated αIIbβ3 receptor antagonists. Such activated αIIb3 receptor antagonists are meant to be encompassed within the scope of the present invention.
as §1

CC[C@H]1NC(=O)c2cccc(c2)CNC(=O)[C@H](CC(=O)O)NC(=O)CNC(=O)[C@H](CCCN=C(N)N)N(C)C1=O.CS(=O)(=O)O [DMP728] (cyclo([NMeR]GD[3Amb][dAbu]))
affinity for activated versus resting platelet GPIIb/IIIa [1]: much higher affinity to the activated form
platelet dissociation rate [2]: relatively fast

C[C@H](CC(=O)O)NC(=O)CN1CCC[C@@H](CCC2CCNCC2)C1=O [L734217]
Kd ([1]; activated form of GPIIb/IIIa): 5 nM
affinity for activated versus resting platelet GPIIb/IIIa [1]: much higher affinity to the activated form
platelet dissociation rate [2]: relatively fast
Kd [3]: 620 nM

CC(=O)N[C@H]1CSSC[C@@H](C(=O)O)NC(=O)[C@H](CC(=O)O)NC(=O)CNC(=O)[C@H](Cc2ccc(CN)cc2)NC(=O)[C@H]2N(CSC2(C)C)C(=O)[C@@H](CC(N)=O)NC1=O [MK852] (Ac-C[dN][Thz(5,5-Me2)][Phe(4-CH2NH2)]GDC-OH; disulfide 1-7)
affinity for activated versus resting platelet GPIIb/IIIa [1]: much higher affinity to the activated form
platelet dissociation rate [2]: relatively fast

Abciximab: Fab fragment of the chimeric human-murine monoclonal antibody 7E3
human antibody response to the chimeric antibody, patients [4]: approximately 6%

CCOC(=O)CCNC(=O)N1CCC2(CC1)CCN(c1ccc(C(=N)NO)cc1)C2=O [ML464]
surviving mice with bone metastases (B16 melanoma cells; 100 mg/Kg oral every 12 hours for 5 doses, 14 days after B16 LV injection, vehicle 76%, P=0.0013): 23%
visceral metastases versus placebo (B16 melanoma cells; 100 mg/Kg oral every 12 hours for 5 doses, day 14, P=0.0125): decrease
mice died from bleeding complications after the LV injection (B16 melanoma cells; 100 mg/Kg oral gavage, 30 minutes prior to LV injection, 14/40 mice): 35%
number and size of visceral metastases versus placebo group (B16 melanoma cells; mice that did develop metastases, tumor sizes not measured): reduced
metastases in inhibitor treated mice compared to placebo treated mice (B16 melanoma cells; β3+/+ mice, FIG. 5(b)): decrease of metastases
duration of disruption of platelet aggregation (platelet aggregation): up to 10 hours

CCCCOC(=O)N[C@@H](CNC(=O)C[C@H]1CC(c2ccc(C(=N)N)cc2)=NO1)C(=O)OC [roxifiban]
affinity for activated versus resting platelet GPIIb/IIIa [1]: comparable Kd values
platelet dissociation rate [2]: relatively slow

— patent US20070185077A1, “Methods of treating, preventing and inhibiting cancer metastasis and tumor formation” (Washington University, priority 2003, published 2007)
